# Data reported in the kinase profiling compilation of Christmann-Franck et al. (2016).
# Where “and” joins values, the source holds several entries; their conditions need not be identical. Equal values may be shown once.
# Tests used:
# Experiment in all cases: radiometric filter-binding kinase assay, Kinase HotSpot
# Conditions in all cases: compound 0.5 µM; ATP 10 µM
# CAMK4 (human) = CAMK4 (human) (UniProt Q16566)
# MAP3K3 (human) = MAP3K3 (human) (UniProt Q99759)
# CDK2 CCNE1 (human) = CDK2 CCNE1 (human) (UniProt P24941+P24864)
# CSNK2A1 (human) = CSNK2A1 (human) (UniProt P68400)
# PRKCA (human) = PRKCA (human) (UniProt P17252)
# FYN (human) = FYN (human) (UniProt P06241)
# LYN (human) = LYN (human) (UniProt P07948)
# GRK4 (human) = GRK4 (human) (UniProt P32298)
# PAK3 (human) = PAK3 (human) (UniProt O75914)
# CHEK1 (human) = CHEK1 (human) (UniProt O14757)
# FLT1 (human) = FLT1 (human) (UniProt P17948)
# DYRK1B (human) = DYRK1B (human) (UniProt Q9Y463)
# EPHA3 (human) = EPHA3 (human) (UniProt P29320)
# NTRK3 (human) = NTRK3 (human) (UniProt Q16288)
# AURKA (human) = AURKA (human) (UniProt O14965)
# NEK1 (human) = NEK1 (human) (UniProt Q96PY6)
# HCK (human) = HCK (human) (UniProt P08631)
# PRKCH (human) = PRKCH (human) (UniProt P24723)
# RPS6KA4 KD2 (human) = RPS6KA4 KD2 (human) (UniProt O75676)
# FGFR3 (human) = FGFR3 (human) (UniProt P22607)
# PRKCZ (human) = PRKCZ (human) (UniProt Q05513)
# CLK1 (human) = CLK1 (human) (UniProt P49759)
# MAPK3 (human) = MAPK3 (human) (UniProt P27361)
# PLK1 (human) = PLK1 (human) (UniProt P53350)
# MET (human) = MET (human) (UniProt P08581)
# CDK6 CCND3 (human) = CDK6 CCND3 (human) (UniProt P30281+Q00534)
# CDC42BPA (human) = CDC42BPA (human) (UniProt Q5VT25)
# MAPK8 (human) = MAPK8 (human) (UniProt P45983)
# GRK7 (human) = GRK7 (human) (UniProt Q8WTQ7)
# MAPKAPK5 (human) = MAPKAPK5 (human) (UniProt Q8IW41)
# CAMKK2 (human) = CAMKK2 (human) (UniProt Q96RR4)
# TBK1 (human) = TBK1 (human) (UniProt Q9UHD2)
# WNK2 (human) = WNK2 (human) (UniProt Q9Y3S1)
# PBK (human) = PBK (human) (UniProt Q96KB5)
# EPHA1 (human) = EPHA1 (human) (UniProt P21709)
# MARK2 (human) = MARK2 (human) (UniProt Q7KZI7)
# NEK11 (human) = NEK11 (human) (UniProt Q8NG66)
# DCLK2 (human) = DCLK2 (human) (UniProt Q8N568)
# PTK2B (human) = PTK2B (human) (UniProt Q14289)
# YES1 (human) = YES1 (human) (UniProt P07947)
# SIK2 (human) = SIK2 (human) (UniProt Q9H0K1)
# PRKCB2 (human) = PRKCB2 (human) (UniProt P05771)
# LYN (human), sequence (P07948 whole entry, looked up): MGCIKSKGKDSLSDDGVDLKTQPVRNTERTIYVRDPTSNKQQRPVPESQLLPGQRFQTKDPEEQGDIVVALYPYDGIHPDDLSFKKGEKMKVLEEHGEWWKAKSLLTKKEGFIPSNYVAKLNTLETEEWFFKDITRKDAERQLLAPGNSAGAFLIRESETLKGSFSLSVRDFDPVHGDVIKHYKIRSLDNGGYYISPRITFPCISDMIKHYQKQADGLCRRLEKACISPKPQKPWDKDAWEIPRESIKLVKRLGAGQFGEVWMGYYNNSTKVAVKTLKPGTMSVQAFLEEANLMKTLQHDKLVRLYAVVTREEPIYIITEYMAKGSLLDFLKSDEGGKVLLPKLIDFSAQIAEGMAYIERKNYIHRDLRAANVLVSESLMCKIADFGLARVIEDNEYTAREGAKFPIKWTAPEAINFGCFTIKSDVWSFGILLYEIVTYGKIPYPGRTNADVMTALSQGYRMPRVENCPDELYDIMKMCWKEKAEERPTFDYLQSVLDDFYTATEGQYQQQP
# MAPKAPK5 (human), sequence (Q8IW41 whole entry, looked up): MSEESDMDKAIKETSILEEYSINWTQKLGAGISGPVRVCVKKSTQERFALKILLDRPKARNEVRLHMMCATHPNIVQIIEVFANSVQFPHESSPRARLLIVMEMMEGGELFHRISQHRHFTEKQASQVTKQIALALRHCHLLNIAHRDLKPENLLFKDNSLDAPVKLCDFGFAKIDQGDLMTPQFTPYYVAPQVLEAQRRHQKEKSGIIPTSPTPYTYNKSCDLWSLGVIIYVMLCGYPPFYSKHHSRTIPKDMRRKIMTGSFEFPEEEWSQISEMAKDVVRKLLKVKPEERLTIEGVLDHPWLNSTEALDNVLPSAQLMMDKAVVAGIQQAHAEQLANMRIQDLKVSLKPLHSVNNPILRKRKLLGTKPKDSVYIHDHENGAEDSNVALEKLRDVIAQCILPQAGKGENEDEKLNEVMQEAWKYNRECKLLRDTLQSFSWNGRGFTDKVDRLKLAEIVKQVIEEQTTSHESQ
# AURKA (human), sequence (O14965 whole entry, looked up): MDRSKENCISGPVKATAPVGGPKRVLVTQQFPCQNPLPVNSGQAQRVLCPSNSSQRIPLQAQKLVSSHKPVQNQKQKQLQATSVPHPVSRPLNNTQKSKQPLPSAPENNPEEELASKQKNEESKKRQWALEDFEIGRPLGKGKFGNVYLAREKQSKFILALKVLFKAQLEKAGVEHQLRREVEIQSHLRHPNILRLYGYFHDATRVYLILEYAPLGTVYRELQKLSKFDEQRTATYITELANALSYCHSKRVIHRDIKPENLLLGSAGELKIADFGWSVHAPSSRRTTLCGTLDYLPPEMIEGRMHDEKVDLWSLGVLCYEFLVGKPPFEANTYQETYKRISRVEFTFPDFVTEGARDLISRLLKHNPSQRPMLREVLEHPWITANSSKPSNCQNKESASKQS
# MARK2 (human), sequence (Q7KZI7 whole entry, looked up): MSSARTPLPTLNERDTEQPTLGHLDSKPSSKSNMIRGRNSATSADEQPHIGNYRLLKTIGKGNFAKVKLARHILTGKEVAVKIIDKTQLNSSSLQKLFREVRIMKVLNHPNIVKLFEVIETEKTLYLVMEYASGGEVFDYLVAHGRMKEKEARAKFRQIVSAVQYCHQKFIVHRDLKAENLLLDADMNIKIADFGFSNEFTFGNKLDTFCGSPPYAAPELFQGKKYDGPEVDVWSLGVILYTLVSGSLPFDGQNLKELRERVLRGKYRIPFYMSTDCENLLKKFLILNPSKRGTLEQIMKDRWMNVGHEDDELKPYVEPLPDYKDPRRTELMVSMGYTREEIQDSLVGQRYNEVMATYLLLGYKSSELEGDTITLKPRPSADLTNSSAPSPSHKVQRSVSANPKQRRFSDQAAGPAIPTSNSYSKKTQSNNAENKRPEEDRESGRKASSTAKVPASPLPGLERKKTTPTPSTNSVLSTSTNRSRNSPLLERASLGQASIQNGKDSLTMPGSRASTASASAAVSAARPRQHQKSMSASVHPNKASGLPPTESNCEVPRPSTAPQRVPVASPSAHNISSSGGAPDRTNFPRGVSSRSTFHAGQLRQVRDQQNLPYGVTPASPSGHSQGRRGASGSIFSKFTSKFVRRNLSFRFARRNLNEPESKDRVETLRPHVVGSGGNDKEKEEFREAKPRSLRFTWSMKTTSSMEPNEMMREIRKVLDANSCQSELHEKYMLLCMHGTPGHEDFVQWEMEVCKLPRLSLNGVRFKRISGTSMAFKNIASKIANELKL
# YES1 (human), sequence (P07947 whole entry, looked up): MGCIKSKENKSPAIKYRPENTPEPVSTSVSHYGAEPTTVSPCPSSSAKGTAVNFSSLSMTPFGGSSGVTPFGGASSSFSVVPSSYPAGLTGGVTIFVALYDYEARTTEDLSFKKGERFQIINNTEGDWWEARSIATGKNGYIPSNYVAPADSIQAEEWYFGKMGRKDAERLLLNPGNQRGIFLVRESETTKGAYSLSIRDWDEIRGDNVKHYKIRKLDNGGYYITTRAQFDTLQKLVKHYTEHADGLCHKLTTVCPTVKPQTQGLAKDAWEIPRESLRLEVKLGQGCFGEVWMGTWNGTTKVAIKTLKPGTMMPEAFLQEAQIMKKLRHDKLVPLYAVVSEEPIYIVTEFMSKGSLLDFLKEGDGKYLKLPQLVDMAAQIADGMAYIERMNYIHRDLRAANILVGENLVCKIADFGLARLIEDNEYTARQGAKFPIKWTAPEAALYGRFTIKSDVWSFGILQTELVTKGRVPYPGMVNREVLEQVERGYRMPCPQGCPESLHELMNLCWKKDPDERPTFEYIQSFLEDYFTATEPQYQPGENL
# PTK2B (human), sequence (Q14289 whole entry, looked up): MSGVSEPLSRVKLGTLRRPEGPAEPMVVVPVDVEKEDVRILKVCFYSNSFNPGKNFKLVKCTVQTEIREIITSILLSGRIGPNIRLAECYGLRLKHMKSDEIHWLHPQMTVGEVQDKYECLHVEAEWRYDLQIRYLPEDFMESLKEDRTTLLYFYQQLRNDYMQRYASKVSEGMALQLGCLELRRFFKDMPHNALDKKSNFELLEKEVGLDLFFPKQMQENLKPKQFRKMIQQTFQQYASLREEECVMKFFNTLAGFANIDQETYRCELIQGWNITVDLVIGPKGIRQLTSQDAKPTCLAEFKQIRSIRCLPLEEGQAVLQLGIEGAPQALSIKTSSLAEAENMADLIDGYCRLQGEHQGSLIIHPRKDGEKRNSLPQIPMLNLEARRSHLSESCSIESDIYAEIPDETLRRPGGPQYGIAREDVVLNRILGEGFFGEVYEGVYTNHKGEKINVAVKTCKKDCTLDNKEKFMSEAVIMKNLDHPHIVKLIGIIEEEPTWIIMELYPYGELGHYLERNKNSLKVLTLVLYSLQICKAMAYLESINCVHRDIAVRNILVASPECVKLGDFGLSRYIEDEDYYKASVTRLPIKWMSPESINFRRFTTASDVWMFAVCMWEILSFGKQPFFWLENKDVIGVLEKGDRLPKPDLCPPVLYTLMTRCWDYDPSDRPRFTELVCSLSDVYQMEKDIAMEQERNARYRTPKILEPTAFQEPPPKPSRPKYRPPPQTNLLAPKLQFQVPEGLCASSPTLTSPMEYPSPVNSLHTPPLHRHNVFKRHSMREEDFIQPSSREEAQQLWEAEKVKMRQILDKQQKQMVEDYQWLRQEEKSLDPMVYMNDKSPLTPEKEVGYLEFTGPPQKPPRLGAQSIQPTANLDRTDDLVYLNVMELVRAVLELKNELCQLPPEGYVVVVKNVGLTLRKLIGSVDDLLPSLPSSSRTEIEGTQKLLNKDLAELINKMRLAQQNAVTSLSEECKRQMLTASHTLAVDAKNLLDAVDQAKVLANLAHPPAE
# MAP3K3 (human), sequence (Q99759 whole entry, looked up): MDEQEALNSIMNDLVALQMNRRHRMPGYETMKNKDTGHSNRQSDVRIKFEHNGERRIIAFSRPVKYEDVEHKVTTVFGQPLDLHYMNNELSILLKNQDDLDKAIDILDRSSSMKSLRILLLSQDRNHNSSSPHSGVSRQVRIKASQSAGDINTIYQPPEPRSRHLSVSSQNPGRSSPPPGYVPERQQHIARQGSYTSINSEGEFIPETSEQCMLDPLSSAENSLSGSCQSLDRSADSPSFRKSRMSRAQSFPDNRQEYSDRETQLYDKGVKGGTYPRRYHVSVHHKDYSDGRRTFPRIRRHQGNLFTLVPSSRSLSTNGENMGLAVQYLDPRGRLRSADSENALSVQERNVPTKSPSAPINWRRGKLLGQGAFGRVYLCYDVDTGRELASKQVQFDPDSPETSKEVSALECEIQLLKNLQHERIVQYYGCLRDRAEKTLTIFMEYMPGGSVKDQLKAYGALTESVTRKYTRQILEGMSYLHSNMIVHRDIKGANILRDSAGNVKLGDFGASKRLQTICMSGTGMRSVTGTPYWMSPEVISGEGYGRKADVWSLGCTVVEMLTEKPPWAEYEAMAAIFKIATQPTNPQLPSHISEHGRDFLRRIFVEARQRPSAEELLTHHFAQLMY
# NEK11 (human), sequence (Q8NG66 whole entry, looked up): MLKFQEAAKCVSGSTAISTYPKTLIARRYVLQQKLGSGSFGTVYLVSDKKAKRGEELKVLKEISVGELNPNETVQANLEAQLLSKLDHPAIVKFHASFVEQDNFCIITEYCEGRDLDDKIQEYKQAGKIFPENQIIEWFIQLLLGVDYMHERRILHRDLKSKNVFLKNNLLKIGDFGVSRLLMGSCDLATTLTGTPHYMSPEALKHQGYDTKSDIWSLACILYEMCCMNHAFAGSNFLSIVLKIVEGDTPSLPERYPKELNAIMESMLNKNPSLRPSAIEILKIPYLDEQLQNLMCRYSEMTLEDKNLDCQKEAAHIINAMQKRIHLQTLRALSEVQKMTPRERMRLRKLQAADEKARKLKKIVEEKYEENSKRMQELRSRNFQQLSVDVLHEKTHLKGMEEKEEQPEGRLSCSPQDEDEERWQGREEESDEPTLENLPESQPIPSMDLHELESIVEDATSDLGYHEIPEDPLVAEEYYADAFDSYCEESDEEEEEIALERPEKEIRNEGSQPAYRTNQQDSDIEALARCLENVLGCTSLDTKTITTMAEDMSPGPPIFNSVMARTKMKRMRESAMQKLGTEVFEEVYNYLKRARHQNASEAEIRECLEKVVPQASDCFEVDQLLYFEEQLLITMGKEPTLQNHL
compound,measurement,setting,value
Nc1nccc(-c2c(-c3ccc(F)cc3)ncn2C2CCNCC2)n1,residual activity,CAMK4 (human),103%
same,residual activity,MAP3K3 (human),101%
same,residual activity,CDK2 CCNE1 (human),92.1%
same,residual activity,CSNK2A1 (human),94.7%
same,residual activity,PRKCA (human),89.1%
same,residual activity,FYN (human),91.1%
same,residual activity,LYN (human),87.5% and 97.5%
same,residual activity,GRK4 (human),96.9%
same,residual activity,PAK3 (human),105%
same,residual activity,CHEK1 (human),99.8%
same,residual activity,FLT1 (human),89.3%
same,residual activity,DYRK1B (human),100%
same,residual activity,EPHA3 (human),97.4%
same,residual activity,NTRK3 (human),97.1%
same,residual activity,AURKA (human),100%
same,residual activity,NEK1 (human),100%
same,residual activity,HCK (human),95.5%
same,residual activity,PRKCH (human),91.9%
same,residual activity,RPS6KA4 KD2 (human),98.7%
same,residual activity,FGFR3 (human),100%
same,residual activity,PRKCZ (human),106%
same,residual activity,CLK1 (human),98.2%
same,residual activity,MAPK3 (human),100%
same,residual activity,PLK1 (human),101%
same,residual activity,MET (human),104%
same,residual activity,CDK6 CCND3 (human),95.5%
same,residual activity,CDC42BPA (human),101%
same,residual activity,MAPK8 (human),94.8%
same,residual activity,GRK7 (human),106%
same,residual activity,MAPKAPK5 (human),94%
same,residual activity,CAMKK2 (human),110%
same,residual activity,TBK1 (human),102%
same,residual activity,WNK2 (human),93.1%
same,residual activity,PBK (human),94.9%
same,residual activity,EPHA1 (human),98.2%
same,residual activity,MARK2 (human),97%
same,residual activity,NEK11 (human),105%
same,residual activity,DCLK2 (human),99.9%
same,residual activity,PTK2B (human),94.6%
same,residual activity,YES1 (human),85.3%
same,residual activity,SIK2 (human),64.7%
same,residual activity,PRKCB2 (human),79.4%
